In ChEMBL document CHEMBL1275440, “In vitro activity of telavancin against resistant gram-positive bacteria” (2008):
Values after ≈ are worked out from the molar mass of the structure shown. Active and inactive are the calls of the source. The rule behind the calls is not given here.

What was measured:
Streptococcus oralis [1] = test: Antibacterial activity against Streptococcus oralis clinical isolate assessed as susceptibility level by broth microdilution method; format: functional
Streptococcus pneumoniae [2] = test: Antibacterial activity against penicillin resistant Streptococcus pneumoniae clinical isolate by broth microdilution method; format: functional
Enterococcus faecalis [3] = test: Antibacterial activity against vancomycin resistant Enterococcus faecalis VanA clinical isolate assessed as susceptibility level by broth microdilution method; format: functional
Enterococcus faecium [4] = test: Antibacterial activity against vancomycin resistant Enterococcus faecium VanA clinical isolate assessed as susceptibility level by broth microdilution method; format: functional
Streptococcus mitis [5] = test: Antibacterial activity against Streptococcus mitis clinical isolate by broth microdilution method; format: functional
[6] = test system: Streptococcus intermedius; test: Antibacterial activity against Streptococcus intermedius clinical isolate assessed as susceptibility level by broth microdilution method; format: functional
Streptococcus agalactiae [7] = test: Antibacterial activity against Streptococcus agalactiae group B clinical isolate assessed as susceptibility level by broth microdilution method; format: functional
[8] = test system: Staphylococcus epidermidis; test: Antibacterial activity against methicillin resistant Staphylococcus epidermidis clinical isolate by broth microdilution method; format: functional
Streptococcus pneumoniae [9] = test: Antibacterial activity against multidrug-resistant Streptococcus pneumoniae clinical isolate by broth microdilution method; format: functional
[10] = test system: Staphylococcus haemolyticus; test: Antibacterial activity against methicillin resistant coagulase-negative Staphylococcus haemolyticus clinical isolate by broth microdilution method; format: functional
Enterococcus faecium [11] = test: Antibacterial activity against vancomycin resistant Enterococcus faecium VanB clinical isolate assessed as susceptibility level by broth microdilution method; format: functional
Enterococcus faecalis [12] = test: Antibacterial activity against vancomycin resistant Enterococcus faecalis VanB clinical isolate by broth microdilution method; format: functional
[13] = test system: Streptococcus constellatus; test: Antibacterial activity against Streptococcus constellatus clinical isolate assessed as susceptibility level by broth microdilution method; format: functional
[14] = test system: Staphylococcus haemolyticus; test: Antibacterial activity against methicillin resistant coagulase-negative Staphylococcus haemolyticus clinical isolate assessed as susceptibility level by broth microdilution method; format: functional
[15] = test system: Streptococcus constellatus; test: Antibacterial activity against Streptococcus constellatus clinical isolate by broth microdilution method; format: functional
Streptococcus pyogenes [16] = test: Antibacterial activity against Streptococcus pyogenes group A clinical isolate assessed as susceptibility level by broth microdilution method; format: functional
Streptococcus agalactiae [17] = test: Antibacterial activity against Streptococcus agalactiae group B clinical isolate by broth microdilution method; format: functional
Streptococcus viridans [18] = test: Antibacterial activity against Streptococcus viridans clinical isolate assessed as susceptibility level by broth microdilution method; format: functional
Staphylococcus aureus [19] = test: Antibacterial activity against methicillin resistant Staphylococcus aureus clinical isolate assessed as susceptibility level by broth microdilution method; format: functional
Enterococcus faecalis [20] = test: Antibacterial activity against vancomycin resistant Enterococcus faecalis VanA clinical isolate by broth microdilution method; format: functional
[21] = test system: Streptococcus intermedius; test: Antibacterial activity against Streptococcus intermedius clinical isolate by broth microdilution method; format: functional
[22] = Antibacterial activity against methicillin resistant coagulase-negative Staphylococcus hominis subsp. novobiosepticus clinical isolate by broth microdilution method; format: functional
Enterococcus faecalis [23] = test system: Enterococcus faecalis
Enterococcus faecalis [24] = test: Antibacterial activity against vancomycin resistant Enterococcus faecalis VanB clinical isolate assessed as susceptibility level by broth microdilution method; format: functional
Streptococcus pneumoniae [25] = test: Antibacterial activity against penicillin intermediate Streptococcus pneumoniae clinical isolate by broth microdilution method; format: functional
Staphylococcus aureus [26] = test: Antibacterial activity against methicillin resistant Staphylococcus aureus clinical isolate by broth microdilution method; format: functional; conditions: for MIC50 / MIC90: Staphylococcus aureus
Streptococcus pyogenes [27] = test: Antibacterial activity against Streptococcus pyogenes group A clinical isolate by broth microdilution method; format: functional
[28] = Antibacterial activity against methicillin resistant coagulase-negative Staphylococcus hominis subsp. novobiosepticus clinical isolate assessed as susceptibility level by broth microdilution method; format: functional
[29] = test system: Staphylococcus saprophyticus; test: Antibacterial activity against methicillin resistant coagulase-negative Staphylococcus saprophyticus clinical isolate assessed as susceptibility level by broth microdilution method; format: functional
Streptococcus mitis [30] = test: Antibacterial activity against Streptococcus mitis clinical isolate assessed as susceptibility level by broth microdilution method; format: functional
Streptococcus viridans [31] = test: Antibacterial activity against Streptococcus viridans clinical isolate by broth microdilution method; format: functional
[32] = test system: Staphylococcus epidermidis; test: Antibacterial activity against methicillin resistant Staphylococcus epidermidis clinical isolate assessed as susceptibility level by broth microdilution method; format: functional
Streptococcus oralis [33] = test: Antibacterial activity against Streptococcus oralis clinical isolate by broth microdilution method; format: functional
[34] = test system: Staphylococcus auricularis; test: Antibacterial activity against methicillin resistant coagulase-negative Staphylococcus auricularis clinical isolate assessed as susceptibility level by broth microdilution method; format: functional
Staphylococcus capitis [35] = test: Antibacterial activity against methicillin resistant coagulase-negative Staphylococcus capitis clinical isolate by broth microdilution method; format: functional
Enterococcus faecium [36] = test: Antibacterial activity against vancomycin resistant Enterococcus faecium VanA clinical isolate by broth microdilution method; format: functional
Enterococcus faecium [37] = test: Antibacterial activity against vancomycin resistant Enterococcus faecium VanB clinical isolate by broth microdilution method; format: functional
Staphylococcus capitis [38] = test: Antibacterial activity against methicillin resistant coagulase-negative Staphylococcus capitis clinical isolate assessed as susceptibility level by broth microdilution method; format: functional
[39] = test system: Staphylococcus auricularis; test: Antibacterial activity against methicillin resistant coagulase-negative Staphylococcus auricularis clinical isolate by broth microdilution method; format: functional
[40] = test system: Staphylococcus saprophyticus; test: Antibacterial activity against methicillin resistant coagulase-negative Staphylococcus saprophyticus clinical isolate by broth microdilution method; format: functional
[41] = test system: Staphylococcus epidermidis; test: Antibacterial activity against methicillin resistant Staphylococcus epidermidis ATCC 35984 by broth microdilution method; format: functional
Streptococcus pneumoniae [42] = test: Antibacterial activity against penicillin intermediate Streptococcus pneumoniae clinical isolate assessed as susceptibility level by broth microdilution method; format: functional
Streptococcus agalactiae [43] = test: Antibacterial activity against Streptococcus agalactiae MED 2038 by broth microdilution method; format: functional
Streptococcus pyogenes [44] = test: Antibacterial activity against Streptococcus pyogenes MED 2040 by broth microdilution method; format: functional

## CCCCCCCCCC(=O)N[C@@H](Cc1c[nH]c2ccccc12)C(=O)N[C@H](CC(N)=O)C(=O)N[C@@H](CC(=O)O)C(=O)N[C@@H]1C(=O)NCC(=O)N[C@@H](CCCN)C(=O)N[C@@H](CC(=O)O)C(=O)N[C@H](C)C(=O)N[C@@H](CC(=O)O)C(=O)NCC(=O)N[C@H](CO)C(=O)N[C@@H]([C@H](C)CC(=O)O)C(=O)N[C@@H](CC(=O)c2ccccc2N)C(=O)O[C@@H]1C
Streptococcus oralis [1]
  Activity: 100%
Streptococcus pneumoniae [2]
  MIC50: 0.12 µg/mL (≈ 0.074 µM)
  MIC90: 0.12 µg/mL (≈ 0.074 µM)
Enterococcus faecalis [3]
  Percent of isolates susceptible: 100%
Enterococcus faecium [4]
  Activity: 98%
Streptococcus mitis [5]
  MIC: 0.25 µg/mL (≈ 0.154 µM)
  MIC50: inactive
  MIC90: inactive
[6]
  Activity: 100%
Streptococcus agalactiae [7]
  Activity: 100%
[8]
  MIC50: 0.5 µg/mL (≈ 0.309 µM)
  MIC90: 1 µg/mL (≈ 0.617 µM)
Streptococcus pneumoniae [9]
  MIC50: 0.12 µg/mL (≈ 0.074 µM)
  MIC90: 0.12 µg/mL (≈ 0.074 µM)
[10]
  MIC50: 0.25 µg/mL (≈ 0.154 µM)
  MIC90: 1 µg/mL (≈ 0.617 µM)
Enterococcus faecium [11]
  Activity: 93%
Enterococcus faecalis [12]
  MIC: 0.5 µg/mL (≈ 0.309 µM)
[13]
  Activity: 100%
[14]
  Activity: 100%
[15]
  MIC: 0.25 µg/mL (≈ 0.154 µM)
  MIC50: inactive
  MIC90: inactive
Streptococcus pyogenes [16]
  Activity: 100%
Streptococcus agalactiae [17]
  MIC50: 0.25 µg/mL (≈ 0.154 µM)
  MIC90: 0.25 µg/mL (≈ 0.154 µM)
Streptococcus viridans [18]
  Activity: 100%
Staphylococcus aureus [19]
  Activity: 98%
Enterococcus faecalis [20]
  MIC50: 1 µg/mL (≈ 0.617 µM)
  MIC90: 2 µg/mL (≈ 1.23 µM)
[21]
  MIC: 0.25 µg/mL (≈ 0.154 µM)
  MIC50: inactive
  MIC90: inactive
[22]
  MIC50: 0.25 µg/mL (≈ 0.154 µM)
  MIC90: 1 µg/mL (≈ 0.617 µM)
Enterococcus faecalis [23]
  MIC50: inactive
  MIC90: inactive
Enterococcus faecalis [24]
  Activity: 100%
Streptococcus pneumoniae [25]
  MIC50: 0.12 µg/mL (≈ 0.074 µM)
  MIC90: 0.5 µg/mL (≈ 0.309 µM)
Staphylococcus aureus [26]
  Activity: 98%
  MIC50: 0.25 µg/mL (≈ 0.154 µM)
  MIC90: 0.5 µg/mL (≈ 0.309 µM)
Streptococcus pyogenes [27]
  MIC: ≤ 0.03 µg/mL
  MIC50: ≤ 0.03 µg/mL
  MIC90: 0.25 µg/mL (≈ 0.154 µM)
[28]
  Activity: 100%
[29]
  Activity: 100%
Streptococcus mitis [30]
  Activity: 100%
Streptococcus viridans [31]
  MIC: 0.25 µg/mL (≈ 0.154 µM)
  MIC50: inactive
  MIC90: inactive
[32]
  Activity: 100%
Streptococcus oralis [33]
  MIC: 0.25 µg/mL (≈ 0.154 µM)
  MIC50: inactive
  MIC90: inactive
[34]
  Activity: 100%
Staphylococcus capitis [35]
  MIC50: 0.25 µg/mL (≈ 0.154 µM)
  MIC90: 1 µg/mL (≈ 0.617 µM)
Enterococcus faecium [36]
  MIC50: 2 µg/mL (≈ 1.23 µM)
  MIC90: 4 µg/mL (≈ 2.47 µM)
Enterococcus faecium [37]
  MIC50: 2 µg/mL (≈ 1.23 µM)
  MIC90: 4 µg/mL (≈ 2.47 µM)
Staphylococcus capitis [38]
  Activity: 100%
[39]
  MIC50: 0.25 µg/mL (≈ 0.154 µM)
  MIC90: 1 µg/mL (≈ 0.617 µM)
[40]
  MIC50: 0.25 µg/mL (≈ 0.154 µM)
  MIC90: 1 µg/mL (≈ 0.617 µM)

## CC(=O)NC[C@H]1CN(c2ccc(N3CCOCC3)c(F)c2)C(=O)O1 [LINEZOLID]
Streptococcus oralis [1]
  Activity: 100%
Streptococcus pneumoniae [2]
  MIC50: 1 µg/mL (≈ 2.96 µM)
  MIC90: 1 µg/mL (≈ 2.96 µM)
[41]
  MIC: 2 µg/mL (≈ 5.93 µM)
Enterococcus faecium [4]
  Activity: 99%
Streptococcus mitis [5]
  MIC: 0.5 µg/mL (≈ 1.48 µM)
  MIC50: inactive
  MIC90: inactive
[6]
  Activity: 100%
Streptococcus agalactiae [7]
  Activity: 100%
[8]
  MIC50: 1 µg/mL (≈ 2.96 µM)
  MIC90: 1 µg/mL (≈ 2.96 µM)
Streptococcus pneumoniae [9]
  MIC50: 1 µg/mL (≈ 2.96 µM)
  MIC90: 1 µg/mL (≈ 2.96 µM)
Streptococcus pneumoniae [42]
  Activity: 100%
[10]
  MIC50: 1 µg/mL (≈ 2.96 µM)
  MIC90: 2 µg/mL (≈ 5.93 µM)
Enterococcus faecium [11]
  Activity: 96%
Enterococcus faecalis [12]
  MIC: 0.5 µg/mL (≈ 1.48 µM)
[13]
  Activity: 100%
[14]
  Activity: 100%
[15]
  MIC: 0.5 µg/mL (≈ 1.48 µM)
  MIC50: inactive
  MIC90: inactive
Streptococcus pyogenes [16]
  Activity: 98%
Streptococcus agalactiae [17]
  MIC50: 1 µg/mL (≈ 2.96 µM)
  MIC90: 1 µg/mL (≈ 2.96 µM)
Streptococcus viridans [18]
  Activity: 100%
Staphylococcus aureus [19]
  Activity: 99%
[21]
  MIC: 0.5 µg/mL (≈ 1.48 µM)
  MIC50: inactive
  MIC90: inactive
Streptococcus agalactiae [43]
  MIC: 1 µg/mL (≈ 2.96 µM)
[22]
  MIC50: 1 µg/mL (≈ 2.96 µM)
  MIC90: 2 µg/mL (≈ 5.93 µM)
Enterococcus faecalis [23]
  MIC50: inactive
  MIC90: inactive
Streptococcus pyogenes [44]
  MIC: 1 µg/mL (≈ 2.96 µM)
Enterococcus faecalis [24]
  Activity: 100%
Streptococcus pneumoniae [25]
  MIC50: 1 µg/mL (≈ 2.96 µM)
  MIC90: 1 µg/mL (≈ 2.96 µM)
Staphylococcus aureus [26]
  Activity: 99%
  MIC50: 2 µg/mL (≈ 5.93 µM)
  MIC90: 4 µg/mL (≈ 11.9 µM)
[28]
  Activity: 100%
[29]
  Activity: 100%
Streptococcus mitis [30]
  Activity: 100%
Streptococcus viridans [31]
  MIC: 0.5 µg/mL (≈ 1.48 µM)
  MIC50: inactive
  MIC90: inactive
[32]
  Activity: 100%
Streptococcus oralis [33]
  MIC: 0.5 µg/mL (≈ 1.48 µM)
  MIC50: inactive
  MIC90: inactive
[34]
  Activity: 100%
Staphylococcus capitis [35]
  MIC50: 1 µg/mL (≈ 2.96 µM)
  MIC90: 2 µg/mL (≈ 5.93 µM)
Enterococcus faecium [36]
  MIC50: 2 µg/mL (≈ 5.93 µM)
  MIC90: 2 µg/mL (≈ 5.93 µM)
Enterococcus faecium [37]
  MIC50: 2 µg/mL (≈ 5.93 µM)
  MIC90: 2 µg/mL (≈ 5.93 µM)
Staphylococcus capitis [38]
  Activity: 100%
[39]
  MIC50: 1 µg/mL (≈ 2.96 µM)
  MIC90: 2 µg/mL (≈ 5.93 µM)
[40]
  MIC50: 1 µg/mL (≈ 2.96 µM)
  MIC90: 2 µg/mL (≈ 5.93 µM)
